Results on 7 compounds are retold here after patent EP4763845A1, “CYANO AROMATIC RING DERIVATIVE AND PHARMACEUTICAL USE THEREOF” (Haisco Pharmaceutical Group Co., Ltd., priority 2023, dated 2025).

Read-outs that look alike come from different tables or passages of the source. Bounds are passed on as bounds.

The nature of series [1]: Pharmacokinetic test in mice. The series is classed as in vivo, ICR mice. To be noted: i.g. (5 mg/kg); for AUC(0-t): mouse, plasma, po. The procedure: Experimental objective: In this experiment, a single dose of the test compound was administered to ICR mice via intravenous administration and intragastric gavage, and the concentration of the test compound in plasma of the mice was measured to evaluate the pharmacokinetic profile of the test compound in the mice.
Experimental animals: Male ICR mice, 6 mice/compound, purchased from Chengdu Ddossy Experimental Animals Co., Ltd.
Experimental method: On the day of the experiment, 6 […] were randomly grouped according to their body weights. The animals were fasted with water available for 12 to 14 h one day before the administration, and were fed 4 h after the administration. Table 6 Administration information of pharmacokinetic test in mice
Sampling: Before and after the administration, 0.15 mL of blood was taken from the orbits under isoflurane anaesthesia, and placed in an EDTAK2 centrifuge tube. Centrifugation was carried out at 5000 rpm at 4°C for 10 min, and the plasma was collected.
The plasma collection time points for PO groups were 0, 5 min, 15 min, 30 min, 1 h, 2 h, 4 h, 7 h, 24 h, and 48 h.
The plasma collection time points for IV groups were 0, 5 min, 15 min, 30 min, 1 h, 2 h, 4 h, 7 h, 24 h, and 48 h.
Before analysis and detection, all samples were stored at -60°C. The samples were analysed quantitatively by LC-MS/MS. Table 7 Pharmacokinetic parameters of compounds of the present invention in plasma of mice

Another series concerns VCaP cells. The series can be described thus: VCaP cell proliferation inhibition experiment (CellTiter-Glo). The series is classed as cell-based. The settings on record: Homo sapiens, 168 h. The method, then:
After centrifugation and resuspension, viable cell counting was performed using a Vi-Cell XR cell counter. […] Then, 180 µl of the cell suspension was added per well to a 96-well cell culture plate at a cell density of 7,500 cells/well. At the time of seeding, T0 wells were also prepared. The following day, R1881 at a final concentration of 0.1 nM and compounds at various concentrations were added. The plate was placed back into the incubator and cultured for an additional 7 days. At the time of compound addition, the T0 plate was measured using the CellTiter-Glo (CTG) kit (Promega, Cat. No. G7572) and recorded as RLU0. Following incubation, 75 µl of pre-thawed and room temperature-equilibrated CellTiter-Glo solution was added to each well. […] The results were processed according to Equation (2). […] Growth% = (RLUcompound−RLU0)/(RLUcontrol−RLU0) × 100% [formula]
In general terms: In ATP-based viability assays light output follows the ATP content of the culture.

Series [2] can be described thus: Pharmacokinetic test in rats. The series is classed as in vivo, SD rats. To be noted: i.g. (5 mg/kg), vehicle 5% DMSO+5% Solutol+90% (20% SBE-β-CD); for AUC(0-t): rat, plasma, po. The procedure: Experimental objective: In this experiment, a single dose of the test compound was administered to SD rats via intravenous administration and intragastric gavage, and the concentration of the test compound in plasma of the rats was measured to evaluate the pharmacokinetic profile of the test compound in the rats.
Experimental animals: Male SD rats, 200-220 g, 6 rats/compound, purchased from Chengdu Ddossy Experimental Animals Co., Ltd.
Experimental method: On the day of the experiment, 6 SD rats were randomly grouped according to their body weights. The animals were fasted with water available for 12 to 14 h one day before the administration, and were fed 4 h after the administration. Table 3 Administration information of pharmacokinetic test in rats
Sampling: Before and after the administration, 0.1 mL of blood was taken from the orbits under isoflurane anaesthesia, and placed in an EDTAK2 centrifuge tube. Centrifugation was carried out at 5000 rpm at 4°C for 10 min, and the plasma was collected.
The plasma collection time points for IV&PO groups were 0, 5 min, 15 min, 30 min, 1 h, 2 h, 4 h, 7 h, 24 h, and 48 h.
Before analysis and detection, all samples were stored at -60°C. The samples were analysed quantitatively by LC-MS/MS. Table 4 Pharmacokinetic parameters of compounds of the present invention in plasma of rats

A further series concerns the target T1, AR protein (Homo sapiens, UniProt P10275).
T1 construct: VCap is a human prostate cancer cell line purchased from ATCC; host or cells: VCaP human prostate cancer cells
T1 sequence (P10275 1-920): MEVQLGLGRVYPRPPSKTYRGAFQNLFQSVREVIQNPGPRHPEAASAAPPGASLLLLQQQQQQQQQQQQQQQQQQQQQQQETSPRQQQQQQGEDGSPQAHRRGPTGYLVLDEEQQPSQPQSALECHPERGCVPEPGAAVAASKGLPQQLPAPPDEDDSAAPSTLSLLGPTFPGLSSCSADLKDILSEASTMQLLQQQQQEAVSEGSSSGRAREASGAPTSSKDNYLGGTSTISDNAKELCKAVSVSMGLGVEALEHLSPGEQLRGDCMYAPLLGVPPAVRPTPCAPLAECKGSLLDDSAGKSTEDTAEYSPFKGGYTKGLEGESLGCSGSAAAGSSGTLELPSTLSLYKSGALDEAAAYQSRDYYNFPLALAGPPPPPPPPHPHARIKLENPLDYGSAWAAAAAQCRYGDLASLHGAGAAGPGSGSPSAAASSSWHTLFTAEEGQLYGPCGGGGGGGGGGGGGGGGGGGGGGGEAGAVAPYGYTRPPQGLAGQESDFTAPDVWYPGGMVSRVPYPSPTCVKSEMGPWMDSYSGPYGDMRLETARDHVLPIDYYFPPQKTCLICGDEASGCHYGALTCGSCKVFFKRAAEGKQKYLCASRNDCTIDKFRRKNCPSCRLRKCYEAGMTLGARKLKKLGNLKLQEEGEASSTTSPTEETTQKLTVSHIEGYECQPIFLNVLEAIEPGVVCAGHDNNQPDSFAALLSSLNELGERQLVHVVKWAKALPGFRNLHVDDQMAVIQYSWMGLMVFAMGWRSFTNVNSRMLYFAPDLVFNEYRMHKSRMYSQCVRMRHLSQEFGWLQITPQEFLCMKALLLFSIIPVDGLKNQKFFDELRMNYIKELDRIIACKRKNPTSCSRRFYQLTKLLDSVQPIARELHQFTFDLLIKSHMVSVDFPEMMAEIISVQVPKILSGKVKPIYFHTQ
Briefly: Detection of AR degradation in VCaP cells (automated western blot). The settings on record: degradation of AR protein in VCaP cells, 24 hours incubation. The series is classed as cell-based. Summed up:
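VCaP cells (5 × 10^5/well) were treated with compounds at various concentrations for 24 h at 37°C. Lysate AR level was quantified by automated capillary western blot, normalised to β-actin and expressed relative to solvent control. DC50 came from four-parameter nonlinear regression; degradation rate = 100 − AR%.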

The next series addresses T2, hERG potassium channel (Homo sapiens, UniProt Q12809).
T2 construct: expressed in transfected cells; host or cells: CHO cells stably expressing hERG
The series can be described thus: hERG potassium ion channel test (manual patch-clamp, CHO cells). It counts as cell-based. To be noted: chinese hamster; inhibitory activity against hERG potassium channel current, CHO cells, whole cell patch-clamp; read-out: IC50. From the text: Experimental platform: Electrophysiological manual patch-clamp system
Cell line: Chinese hamster ovary (CHO) cell lines stably expressing hERG potassium ion channel
Experimental method: In Chinese Hamster Ovary (CHO) cells stably expressing hERG potassium channel, whole cell patch-clamp technique was used to record hERG potassium channel current at room temperature. The glass microelectrode was made of a glass electrode blank (BF150-86-10, Sutter) by a puller. The tip resistance after filling the liquid in the electrode was about 2-5 MΩ. The glass microelectrode can be connected to the patch-clamp amplifier by inserting the glass microelectrode into an amplifier probe. The clamping voltage and data recording were controlled and recorded by the pClamp 10 software through a computer. The sampling frequency was 10 kHz, and the filtering frequency was 2 kHz. After the whole cell records were obtained, the cells were clamped at -80 mV, and the step voltage that induced the hERG potassium current (I hERG) was depolarised from -80 mV to +20 mV for 2 s, then repolarised to -50 mV, and returned to -80 mV after 1 s. This voltage stimulation was given every 10 s, and the administration process was started after the hERG potassium current was confirmed to be stable (at least 1 minute). The compound was administered for at least 1 minute at each test concentration, and at least 2 cells (n ≥ 2) were tested at each concentration.
Data processing: Data analysis processing was carried out by using pClamp 10, GraphPad Prism 5 and Excel software.
Compound IC50 was calculated using GraphPad Prism 5 software by fitting according to the following equation: Y = Bottom + (Top−Bottom)/(1+10^(∧)((LogIC50−X)*HillSlope)) [formula] where X represents the Log value of the tested concentration of the test sample, Y represents the inhibition percentage at the corresponding concentration, and Bottom and Top represent the minimum and maximum inhibition percentage, respectively.
For orientation: hERG is a cardiac potassium channel; its block is linked to QT prolongation.

Setting [3] is: Vehicle 1: 5% DMSO+5% Solutol+30% PEG400+60% (20% SBE-CD).
Where [4] appears, read: Vehicle 3: 5% DMSO+5% Solutol+90% (20% SBE-β-CD).

T2 sequence (Q12809 whole entry): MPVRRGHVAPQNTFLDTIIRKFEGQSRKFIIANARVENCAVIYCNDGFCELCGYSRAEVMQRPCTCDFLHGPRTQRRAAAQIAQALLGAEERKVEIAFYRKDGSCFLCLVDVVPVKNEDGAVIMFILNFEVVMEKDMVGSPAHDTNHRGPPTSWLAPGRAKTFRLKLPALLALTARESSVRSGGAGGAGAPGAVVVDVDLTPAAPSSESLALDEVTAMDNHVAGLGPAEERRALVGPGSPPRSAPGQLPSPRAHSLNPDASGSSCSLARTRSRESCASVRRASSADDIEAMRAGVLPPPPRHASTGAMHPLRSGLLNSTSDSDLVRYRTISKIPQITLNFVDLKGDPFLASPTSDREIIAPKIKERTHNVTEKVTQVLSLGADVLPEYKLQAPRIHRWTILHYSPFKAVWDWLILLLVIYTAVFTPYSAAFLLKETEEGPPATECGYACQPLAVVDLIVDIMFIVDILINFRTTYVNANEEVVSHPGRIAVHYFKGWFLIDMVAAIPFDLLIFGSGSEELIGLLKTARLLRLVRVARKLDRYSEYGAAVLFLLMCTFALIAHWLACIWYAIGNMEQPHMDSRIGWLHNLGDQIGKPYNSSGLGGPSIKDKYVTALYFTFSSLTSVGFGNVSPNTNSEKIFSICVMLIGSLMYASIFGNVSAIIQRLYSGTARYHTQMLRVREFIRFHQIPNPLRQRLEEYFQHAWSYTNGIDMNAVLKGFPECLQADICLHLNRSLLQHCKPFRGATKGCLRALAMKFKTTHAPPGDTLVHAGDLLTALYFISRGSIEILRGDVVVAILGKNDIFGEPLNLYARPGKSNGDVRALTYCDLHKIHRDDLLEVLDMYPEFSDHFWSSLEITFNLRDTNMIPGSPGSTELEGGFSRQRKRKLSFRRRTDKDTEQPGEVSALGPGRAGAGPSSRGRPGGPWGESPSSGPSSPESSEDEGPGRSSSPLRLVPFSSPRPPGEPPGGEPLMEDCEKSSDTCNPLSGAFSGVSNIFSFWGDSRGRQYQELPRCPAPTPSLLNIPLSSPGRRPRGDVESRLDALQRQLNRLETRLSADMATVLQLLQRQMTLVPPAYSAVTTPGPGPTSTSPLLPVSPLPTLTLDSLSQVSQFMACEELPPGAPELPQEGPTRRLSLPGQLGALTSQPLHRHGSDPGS

Regarding `COc1cc(O[C@H]2C(C)(C)[C@H](NC(=O)c3ccc(N4CCC(CN5CCN(c6ccc(C(=O)N[C@H]7CCC(=O)NC7=O)c(F)c6)CC5)CC4)cc3)C2(C)C)ccc1C#N` [Control compound, reference compound], the F in series [1] (setting [3]) stood at 63.4±3.3%; in series [2] it was 26.9±3.2%. In addition, the AUC(0-t) in series [1] (male, ICR, Vehicle 1: 5% DMSO+5% Solutol+30% PEG400+60% (20% SBE-CD)) is 20700 ± 1080 ng·h/mL; in series [2] (male, SD), 2870 ± 338 ng·h/mL. The compound further gave a GI50 in the series with VCaP cells above 2000 nM.
In turn, `COc1cc(O[C@H]2C(C)(C)[C@H](NC(=O)c3ccc(N4CCC(CN5CCN6c7cc(F)c(C(=O)N[C@H]8CCC(=O)NC8=O)cc7CC[C@H]6C5)CC4)cc3)C2(C)C)ccc1C#N` [Compound 13] registered an area under the curve AUC(0-t) in series [1] (setting [3]) of 33500 ± 1680 ng·h/mL. In addition, the 50% degradation concentration (DC50) on AR protein (read-out: DC50) was below 100 nM.
On to `CC1(C)[C@H](NC(=O)c2ccc(N3CCC(CN4CCN5c6cc(F)c(C7CCC(=O)NC7=O)cc6CC[C@@H]5C4)CC3)cc2)C(C)(C)[C@H]1Oc1ccc(C#N)c2ncccc12` (some centres unmarked) [Compound 30], for which the AUC(0-t) in series [1] (setting [4]) is 33000 ± 9330 ng·h/mL. In addition, at AR protein (read-out: DC50), the 50% degradation concentration (DC50) is below 100 nM. Further, the IC50 at hERG potassium channel was above 40000 nM.
Consider `COc1cc(O[C@H]2C(C)(C)[C@H](NC(=O)c3ccc(N4CCC(CN5CCN6c7cc(F)c(C8CCC(=O)NC8=O)cc7CC[C@@H]6C5)CC4)nn3)C2(C)C)ccc1C#N` (some centres unmarked) [Trifluoroacetate of compound 60], for which, in series [1] (setting [4]), the F was 84.2±8.4% and the AUC(0-t) came out at 41600 ± 4140 ng·h/mL. At AR protein, the half-maximal degradation concentration (DC50) was below 100 nM. In addition, the GI50 in the series with VCaP cells is below 300 nM. In series [2], the F is on record as 57.5±3.0% and the AUC(0-t) stood at 6600 ± 349 ng·h/mL.
As to `COc1cc(O[C@H]2C(C)(C)[C@H](NC(=O)c3ccc(N4CCC(CN5CCN6c7cc(F)c(C8CCC(=O)NC8=O)cc7CC[C@H]6C5)CC4)nn3)C2(C)C)ccc1C#N` (some centres unmarked) [Trifluoroacetate of compound 61], in series [1] (setting [4]), the F is on record as 98.8±12% and the AUC(0-t) was determined as 28500 ± 3460 ng·h/mL. The DC50 on AR protein (read-out: DC50) was below 100 nM. In the series on VCaP cells, this compound had a GI50 below 300 nM. Further, in series [2], the F was 43.5+14% and the exposure AUC(0-t) was determined as 5460 ng·h/mL.
Consider `CC1(C)[C@H](NC(=O)c2ccc(N3CCC(CN4CCN5c6cc(F)c(N7CCC(=O)NC7=O)cc6CC[C@@H]5C4)CC3)cc2)C(C)(C)[C@H]1Oc1ccc(C#N)c2ncccc12` [Compound 32], for which the AUC(0-t) in series [1] (setting [4]) came to 30900 ± 6080 ng·h/mL. The half-maximal degradation concentration (DC50) on AR protein (read-out: DC50) is below 100 nM.
As for `COc1cc(O[C@H]2C(C)(C)[C@H](NC(=O)c3ccc(N4CCC(CN5CCN6c7cc(F)c(N8CCC(=O)NC8=O)cc7CC[C@@H]6C5)CC4)nc3)C2(C)C)ccc1C#N` [Trifluoroacetate of compound 66], the AUC(0-t) in series [1] (setting [4]) amounted to 30400 ± 9310 ng·h/mL. This compound also showed a GI50 in the series on VCaP cells below 300 nM.

Usually AUC(0-t) stands for exposure summed from dosing to a finite time, without extrapolation to infinity. The low end stands for less exposure, the high end for more exposure. For orientation: GI50 means the concentration that inhibits growth by half. A high value points to lower sensitivity of the cells. For orientation: DC50 means the midpoint of the concentration-degradation curve. In general, IC50 refers to the concentration that gives 50% inhibition.
